From publication PMC10354055, “An optimized Nurr1 agonist provides disease-modifying effects in Parkinson’s disease models” (Nature Communications, 2023)
“And” between values parts separate entries of the source, which are not always exact repeats. Identical values can stand only once.

Target: T1, Nurr1-LBD (Mus musculus, UniProt Q06219)
T1 construct: transfected with pCMV-fNurr1, pGAL-Nurr1(LBD), pGAL-Nor1(LBD) or pGAL-Nur77(LBD) and reporter construct; expressed in transfected cells; host or cells: SK-N-BE(2)C (human neuroblastoma), N27-A (rat dopaminergic), MN9D (murine dopaminergic)
T1 sequence (Q06219 360-595 limits assumed): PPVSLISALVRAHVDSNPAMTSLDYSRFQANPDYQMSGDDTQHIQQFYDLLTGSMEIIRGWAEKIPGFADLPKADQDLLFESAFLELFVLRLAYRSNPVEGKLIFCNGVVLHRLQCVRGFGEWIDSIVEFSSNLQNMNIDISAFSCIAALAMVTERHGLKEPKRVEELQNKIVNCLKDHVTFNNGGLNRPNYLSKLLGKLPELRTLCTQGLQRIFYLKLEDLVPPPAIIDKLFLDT
Assay: Luciferase reporter assay, Nurr1-LBD, SK-N-BE(2)C cells
Format: cell-based
Conditions: for Maximum fold activity / EC50: Nurr1 activation; for Maximum fold activity: Supplementary Table 1; for Nurr1 activation (in words): Nurr1 reporter assays
Source text: Nurr1 transactivity was normalized to β-galactosidase activity.

[1] = Supplementary Table 1, values in µM
[2] = Supplementary Table 1, values given in nM

Maximum fold activity	EC50 [1] [µM]	Nurr1 activation (in words)	EC50 [2] [µM]	SMILES
7.60 ± 0.08 fold	1.04	good Nurr1 activities	–	CCN1CCN(c2cc(N3CCOCC3)nc(NCCNc3ccnc4cc(Cl)ccc34)n2)CC1 [4A7C-305]
2.63 ± 0.58 fold	–	better Nurr1 EC50 than 4A7C-103	0.316 ± 0.0398	CCN1CCN(c2cc(Cl)nc(NCCNc3ccnc4cc(Cl)ccc34)n2)CC1 [4A7C-104]
4.22 ± 0.16 fold	–	–	0.017 ± 0.00497	Clc1ccc2c(NCCN3CCN(c4ccnc(Cl)n4)CC3)ccnc2c1 [4A7C-203]
3.52 ± 0.19 fold	–	diminished Nurr1 activity	0.6345 ± 0.00137	CCN1CCN(c2cc(Cl)nc(NCCCNc3ccnc4cc(Cl)ccc34)n2)CC1 [4A7C-103]
3.78 ± 0.25 fold	–	–	0.00128 ± 0.00063	Cc1cc(N2CCN(CCNc3ccnc4cc(Cl)ccc34)CC2)nc(N2CCCC2)n1 [4A7C-202]
4.99 ± 0.86 fold	–	–	0.00051 ± 6e-05	Cc1cc(N(CCNc2ccnc3cc(Cl)ccc23)Cc2cccs2)nc(Cl)n1 [4A7C-502]
4.49 ± 0.43 fold	–	–	0.00983 ± 0.00029	Cc1cc(N(CCNc2ccnc3cc(Cl)ccc23)Cc2cccs2)nc(N2CCOCC2)n1 [4A7C-506]
3.44 ± 0.28 fold	3.86 ± 0.26	–	–	Cc1cc(NC2CCCC(Nc3ccnc4cc(Cl)ccc34)C2)nc(N2CCN(c3ccccc3)CC2)n1 (stereo not drawn) [4A7C-602]
3.68 ± 0.04 fold and 3.68 fold	–	–	0.143	CCN1CCN(c2nc(C)cc(NCCCNc3ccnc4cc(Cl)ccc34)n2)CC1 [4A7C-102]
3.81 ± 0.17 fold	–	–	0.11 ± 0.0271	Cc1cc(NC2CCCC(Nc3ccnc4cc(Cl)ccc34)C2)nc(Cl)n1 (stereo not drawn) [4A7C-601]
4.50 ± 1.59 fold	2.23 ± 0.4	–	–	Cc1cc(N2CCN(C)CC2)nc(NC2CCCC(Nc3ccnc4cc(Cl)ccc34)C2)n1 (stereo not drawn) [4A7C-607]
3.01 ± 0.13 fold	–	–	0.00262 ± 0.00096	CCN1CCN(c2nc(NCCCCNc3ccnc4cc(Cl)ccc34)c3ccccc3n2)CC1 [4A7C-401]
4.07 ± 0.53 fold	–	–	0.431 ± 0.0151	Cc1cc(N2CCN(C)CC2)nc(N(CCNc2ccnc3cc(Cl)ccc23)Cc2cccs2)n1 [4A7C-504]
6.31 ± 0.82 fold	1.14 ± 0.13	–	–	Cc1cc(N2CCN(c3ccccc3)CC2)nc(NC2CCCC(Nc3ccnc4cc(Cl)ccc34)C2)n1 (stereo not drawn) [4A7C-608]
2.25 ± 0.26 fold	–	–	0.00107 ± 0.00012	Cc1cc(N2CCOCC2)nc(N(CCNc2ccnc3cc(Cl)ccc23)Cc2cccs2)n1 [4A7C-503]

The remaining lines, values behind:

SMILES	Maximum fold activity	EC50 [1] [µM]	Nurr1 activation (in words)	EC50 [2] [µM]
CCN1CCN(c2nccc(N3CCN(CCNc4ccnc5cc(Cl)ccc45)CC3)n2)CC1 [4A7C-206]	10.71 ± 0.44 fold	10 ± 0.76	–	–
Cc1cc(NC2CCCC(Nc3ccnc4cc(Cl)ccc34)C2)nc(N2CCCCC2)n1 (stereo not drawn) [4A7C-603]	6.84 ± 0.52 fold	1.22 ± 0.02	–	–
Cc1cc(N2CCCCC2)nc(NC2CCCC(Nc3ccnc4cc(Cl)ccc34)C2)n1 (stereo not drawn) [4A7C-609]	4.83 ± 0.51 fold	1.19 ± 0.61	–	–
Cc1cc(N2CCCC2)nc(NC2CCCC(Nc3ccnc4cc(Cl)ccc34)C2)n1 (stereo not drawn) [4A7C-604]	4.24 ± 0.45 fold	1.03 ± 0.42	–	–
CCN1CCN(c2cc(C)nc(N(CCNc3ccnc4cc(Cl)ccc34)Cc3cccs3)n2)CC1 [4A7C-507]	3.24 ± 0.40 fold	–	–	0.0949 ± 0.00166
CCN1CCN(c2cc(NCCNc3ccnc4cc(Cl)ccc34)nc(N3CCN(CC)CC3)n2)CC1 [4A7C-303]	9.50 ± 0.22 fold	–	good activity	0.0085 ± 0.0186
Cc1cc(N2CCN(CCNc3ccnc4cc(Cl)ccc34)CC2)nc(N2CCN(C)CC2)n1 [4A7C-201]	4.78 ± 0.31 fold	–	–	0.0146 ± 0.00138
Clc1ccc2c(NCCN3CCN(c4nccc(-n5ccnc5)n4)CC3)ccnc2c1 [4A7C-509]	3.43 ± 0.42 fold	–	–	0.113 ± 0.0192
Cc1cc(N(CCNc2ccnc3cc(Cl)ccc23)Cc2cccs2)nc(N2CCCCC2)n1 [4A7C-505]	3.65 ± 0.31 fold	–	–	0.00214 ± 0.00045
CCN1CCN(c2cc(N3CCCCC3)nc(NCCNc3ccnc4cc(Cl)ccc34)n2)CC1 [4A7C-304]	2.16 ± 0.03 fold	–	good Nurr1 activities	0.00967 ± 0.00787
Cc1cc(N2CCSCC2)nc(NC2CCCC(Nc3ccnc4cc(Cl)ccc34)C2)n1 (stereo not drawn) [4A7C-606]	5.72 ± 0.16 fold	1.54 ± 0.36	–	–
CCN1CCN(c2cc(N3CCN(C)CC3)nc(NCCNc3ccnc4cc(Cl)ccc34)n2)CC1 [4A7C-306]	10.01 ± 0.06 fold	–	good Nurr1 activities	0.0255 ± 0.0422
Clc1ccc2c(NCCN3CCN(c4ccnc(N5CCSCC5)n4)CC3)ccnc2c1 [4A7C-204]	4.46 ± 0.67 fold	–	–	0.0337 ± 0.00034
Cc1cc(N(CCNc2ccnc3cc(Cl)ccc23)Cc2ccc3c(c2)OCO3)nc(N2CCN(C)CC2)n1 [4A7C-501]	10.51 ± 0.85 fold	3.39 ± 0.26	–	–
Cc1cc(NC2CCCC(Nc3ccnc4cc(Cl)ccc34)C2)nc(N2CCOCC2)n1 (stereo not drawn) [4A7C-605]	5.71 ± 0.81 fold	1.08 ± 0.37	–	–
